The source made the active and inactive calls.
Tests used:
[1] = target: T1, E3 ubiquitin-protein ligase XIAP (Homo sapiens, UniProt P98170); test: Counter Screen using XIAP-Bir3 for Chemical Antagonists of Bir1/2 domains of IAP-family anti-apoptotic proteins. [Related pubchem assays (depositor defined):AID1018, AID1449, AID1514, AID1638, AID1749, AID1750, AID488957, AID488963]
[2] = target: T1, E3 ubiquitin-protein ligase XIAP; test: small molecules displacing peptide from XIAP – biochemical, IAP family, fluorescence polarization (AID 1018); assay type: functional
[3] = Luminescence-based cell-based high throughput dose response assay to identify activators of the DAF-12 from the parasite S. stercoralis (ssDAF-12).; assay type: functional
[4] = target: Glyceraldehyde-3-phosphate dehydrogenase (Homo sapiens, UniProt P04406)
[5] = target: T2, Alkaline phosphatase, tissue-nonspecific isozyme (Homo sapiens, UniProt P05186); test: potency against alkaline phosphatase TNAP – biochemical, luminescent, dose response, SAR follow-up (AID 1056)
T2 sequence (P05186 whole entry): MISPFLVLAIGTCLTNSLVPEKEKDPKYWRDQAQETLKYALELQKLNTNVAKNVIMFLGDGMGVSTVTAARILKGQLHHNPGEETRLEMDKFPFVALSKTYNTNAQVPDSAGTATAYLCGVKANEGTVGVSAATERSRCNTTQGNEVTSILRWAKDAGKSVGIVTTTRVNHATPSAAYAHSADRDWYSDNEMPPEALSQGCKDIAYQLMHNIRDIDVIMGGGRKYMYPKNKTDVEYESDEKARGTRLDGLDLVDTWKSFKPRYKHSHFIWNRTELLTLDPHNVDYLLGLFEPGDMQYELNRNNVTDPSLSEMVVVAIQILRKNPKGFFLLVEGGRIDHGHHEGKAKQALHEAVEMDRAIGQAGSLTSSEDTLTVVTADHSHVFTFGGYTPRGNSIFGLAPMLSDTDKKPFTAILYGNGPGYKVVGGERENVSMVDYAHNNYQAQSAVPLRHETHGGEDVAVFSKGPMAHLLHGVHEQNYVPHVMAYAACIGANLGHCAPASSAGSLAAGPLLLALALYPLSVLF

[6] = HEK-293T cell viability reduction – luminescence, B-cell screen hits, cytotoxicity control for BCR NF-kB inhibitor project, dose response (AID 489021); assay type: functional, cell-based;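 further: HEK-293T cells carrying an NF-kB luciferase reporter; cells exposed to compound for about 14 hours before viability readout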
[7] = system: HEK293; test: inhibition of NOD1-driven NF-kB reporter – cell-based, luminescence, uHTS, primary screen (AID 1578); assay type: functional; conditions: Homo sapiens
[8] = system: HEK293; test: cells; assay type: functional, cell-based; conditions: Homo sapiens
[9] = system: HEK293; test: cells; assay type: functional, cell-based; conditions: Homo sapiens; remark: listed apart in the source
[10] = target: Nucleotide-binding oligomerization domain-containing protein 2 (Homo sapiens, UniProt Q9HC29); test: inhibition of NOD2-driven NF-kB reporter – cell-based, luminescence, uHTS, HEK293 (AID 1566); assay type: functional
[11] = system: HEK293; test: NOD2 signaling inhibitors in MDP-stimulated cells, cell-based, uHTS, luminescence (AID 2001); assay type: functional; conditions: Homo sapiens
[12] = system: HEK293; test: cells; assay type: functional, cell-based; conditions: Homo sapiens; remark: listed apart in the source
[13] = luciferase reporter signal suppression in cells – H4 neuroglioma cells, luminescence, dose response (AID 1990); assay type: functional, cell-based
[14] = Luminescence Cell-Based Dose Response HTS to Identify Inhibitors of 5'UTR Stem-Loop Driven Prion Protein mRNA Translation in H4 Neuroglioblastoma Cells. [Related pubchem assays: 1827 (Project Summary), 1813 (Primary HTS)]; assay type: functional
[15] = alpha-synuclein stem-loop luciferase translation blockers – H4 neuroglioma cells, luminescence, confirmation (AID 1988); assay type: functional, cell-based
[16] = target: T3, Kappa-type opioid receptor (Homo sapiens, UniProt P41145); assay type: functional
[17] = target: Beta-galactosidase (Escherichia coli, UniProt Q8VNN2); assay type: functional
[18] = target: T4, Sphingosine 1-phosphate receptor 4 (Homo sapiens, UniProt O95977); test: Fluorescence dose response cell-based high throughput screening assay for antagonists of the Sphingosine 1-Phosphate Receptor 4 (S1P4). [Related pubchem assays: 1524 (Confirmation in triplicates.), 1510 (Primary screen.)]; assay type: functional
T4 sequence (O95977 whole entry): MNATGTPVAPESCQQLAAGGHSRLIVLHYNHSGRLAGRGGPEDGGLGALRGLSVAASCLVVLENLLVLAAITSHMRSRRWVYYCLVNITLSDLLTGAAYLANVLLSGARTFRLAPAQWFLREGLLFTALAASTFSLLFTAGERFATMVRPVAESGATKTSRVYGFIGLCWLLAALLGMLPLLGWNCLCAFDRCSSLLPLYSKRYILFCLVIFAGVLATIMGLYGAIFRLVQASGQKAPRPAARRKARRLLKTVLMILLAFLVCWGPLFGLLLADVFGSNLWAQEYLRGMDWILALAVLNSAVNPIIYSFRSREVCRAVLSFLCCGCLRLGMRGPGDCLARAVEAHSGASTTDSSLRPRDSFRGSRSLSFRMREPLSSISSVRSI

[19] = target: T3, Kappa-type opioid receptor; assay type: functional; remark: listed apart in the source
[20] = target: Sphingosine 1-phosphate receptor 1 (Homo sapiens, UniProt P21453); assay type: functional;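 further: Tango beta-arrestin reporter U2OS cells stimulated with S1P near its EC80; inhibitor potency meaning antagonism of receptor activation by the natural agonist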
[21] = system: INS1; test: INS-1E survival protection against cytokine death – cell-based, luminescence, retest, dose response (AID 449756); assay type: functional; conditions: Rattus norvegicus;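 further: cell death triggered by IL-1 beta plus TNF-alpha plus IFN-gamma mixture; protective hits raise ATP signal compared with cytokine alone wells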
[22] = target: Melanocortin receptor 4 (Homo sapiens, UniProt P32245); test: inhibitors of MC4R cAMP signaling – cell-based, TR-FRET, biased antagonists, dose response (AID 602298); assay type: functional;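 further: antagonist potency against agonist-stimulated cAMP production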
[23] = cAMP pathway inhibition in counterscreen cell line – TR-FRET cAMP detection, counter-screen for MC4R biased antagonist project, dose response (AID 602305); assay type: functional, cell-based;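 further: U2OS cells stimulated with forskolin near its EC80 as the cAMP inducer; potency is for inhibition of forskolin-stimulated cAMP signaling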
[24] = target: Vasopressin V1a receptor (Homo sapiens, UniProt P37288); test: Counterscreen for Oxytocin Receptor (OXTR) agonists: Fluorescence-based cell-based high throughput dose response assay to identify agonists of the vasopressin 1 receptor (V1R). [Related pubchem assays: 2435 (Primary screen (OXTR agonists in singlicate)), 434991 (Counterscreen (V1R agonists in triplicate)), 2482 (Summary (OXTR agonists)) …; assay type: functional
[25] = target: Oxytocin receptor (Homo sapiens, UniProt P30559); test: Fluorescence-based cell-based high throughput dose response assay for agonists of the Oxytocin Receptor (OXTR). [Related pubchem assays: 2435 (Primary screen (OXTR agonists in singlicate)), 434991 (Counterscreen (V1R agonists in triplicate)), 2482 (Summary (OXTR agonists)), 434963 (Confirmation screen (OXTR agonists in triplicate))]; assay type: functional
[26] = THP-1 cell cytotoxicity, dose response, cytotoxicity control for non-replicating M. tuberculosis project (AID 489025); assay type: functional
[27] = HepG2 cell cytotoxicity, dose response, cytotoxicity control for non-replicating M. tuberculosis project (AID 489018); assay type: functional; conditions: Mycobacterium tuberculosis
[28] = Vero E6 cell cytotoxicity, dose response, cytotoxicity control for non-replicating M. tuberculosis project, secondary assay (AID 492998); assay type: functional, VeroE6; conditions: Vero C1008
[29] = cells; assay type: functional
[30] = target: T5, SUMO-activating enzyme (Homo sapiens, UniProt Q9UBT2); test: blockers of UBC9-mediated SUMO conjugation – biochemical, AlphaScreen, SUMOylation inhibitor project, confirmation (AID 2018); assay type: functional
[31] = target: T5, SUMO-activating enzyme; test: blockers of SAE1/SAE2–UBC9 SUMO transfer – biochemical, HTRF, uHTS, primary screen (AID 2006); assay type: protein-complex assay
[32] = target: Induced myeloid leukemia cell differentiation protein Mcl-1 (Homo sapiens, UniProt Q07820); assay type: functional
[33] = Trypanosoma cruzi growth suppression in host cells – NIH3T3 host cells, beta-gal luminescence, confirmation (AID 2044); assay type: functional, cell-based;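 further: intracellular parasites grown in NIH/3T3 mouse fibroblasts as host cells; luminescent beta-galactosidase reporter signal from transgenic T. cruzi replicating inside host cells; inhibitors lower the luminescence signal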
[34] = NIH3T3 cell viability loss – ATP luminescence, mouse fibroblasts, counter-screen, dose response (AID 2010); assay type: functional, cell-based;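 further: cells exposed to compound for about 90 hours before reading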
[35] = target: T6, Bcl-2-related protein A1 (Mus musculus, UniProt Q07440); assay type: functional;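 further: confirmatory dose–response counterscreen on Bfl-1, used to check hits from a UBC13 polyubiquitin inhibitor campaign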
T6 sequence (Q07440 whole entry): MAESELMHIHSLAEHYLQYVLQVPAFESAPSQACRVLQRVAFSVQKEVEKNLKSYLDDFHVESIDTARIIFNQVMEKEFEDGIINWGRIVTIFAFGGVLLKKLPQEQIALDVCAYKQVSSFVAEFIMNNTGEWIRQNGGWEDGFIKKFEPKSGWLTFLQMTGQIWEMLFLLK

[36] = target: T7, Ubiquitin-conjugating enzyme E2 N (Homo sapiens, UniProt P61088); assay type: functional
T7 sequence (P61088 whole entry): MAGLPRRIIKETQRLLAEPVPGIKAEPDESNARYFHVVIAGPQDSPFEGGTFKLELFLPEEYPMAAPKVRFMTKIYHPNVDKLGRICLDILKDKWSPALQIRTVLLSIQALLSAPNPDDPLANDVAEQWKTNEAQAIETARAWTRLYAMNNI

[37] = target: T7, Ubiquitin-conjugating enzyme E2 N; assay type: functional; remark: listed apart in the source
[38] = activation of miR-122 Renilla sensor silencing – cell-based, Huh7 psiCHECK-miR122, Renilla luciferase, cherry-picked, dose response (AID 651956); assay type: functional;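 further: huh7 hepatoma cells stably carrying a psiCHECK-2 miR-122 sensor plasmid; renilla luciferase signal reporting endogenous miR-122 activity after 48 h compound exposure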
[39] = general mammalian cell viability loss – activator set, cherry-pick, cytotoxicity control for miR-122 modulator project, dose response (AID 720690); assay type: functional, cell-based;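 further: HEK293T human cells scored for general mammalian cytotoxicity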
[40] = target: Peroxisome proliferator-activated receptor gamma/Nuclear receptor coactivator 1 (Homo sapiens, UniProt P37231); test: TR-FRET dose response biochemical High Throughput Screening assay for agonists of the steroid receptor coactivator 1 (SRC-1) recruitment by the peroxisome proliferator-activated receptor gamma (PPAR gamma): non-selective agonists. [Related pubchem assays (depositor defined):AID1300, AID1808, AID504735, AID631]; assay type: protein assay
[41] = target: Peroxisome proliferator-activated receptor gamma/Nuclear receptor coactivator 3 (Homo sapiens, UniProt P37231); test: TR-FRET dose response biochemical High Throughput Screening assay for agonists of the steroid receptor coactivator 3 (SRC-3) recruitment by the peroxisome proliferator-activated receptor gamma (PPAR gamma): non-selective agonists. [Related pubchem assays: 1301 (Confirmation screen.), 1048 (Primary screen.)]; assay type: functional
[42] = target: Peroxisome proliferator-activated receptor gamma/Nuclear receptor coactivator 2 (Homo sapiens, UniProt P37231); test: TR-FRET dose response biochemical High Throughput Screening assay for agonists of the steroid receptor coactivator 2 (SRC-2) recruitment by the peroxisome proliferator-activated receptor gamma (PPAR gamma): non-selective agonists. [Related pubchem assays: 1297, 1032 ]; assay type: functional

T1 sequence (P98170 whole entry): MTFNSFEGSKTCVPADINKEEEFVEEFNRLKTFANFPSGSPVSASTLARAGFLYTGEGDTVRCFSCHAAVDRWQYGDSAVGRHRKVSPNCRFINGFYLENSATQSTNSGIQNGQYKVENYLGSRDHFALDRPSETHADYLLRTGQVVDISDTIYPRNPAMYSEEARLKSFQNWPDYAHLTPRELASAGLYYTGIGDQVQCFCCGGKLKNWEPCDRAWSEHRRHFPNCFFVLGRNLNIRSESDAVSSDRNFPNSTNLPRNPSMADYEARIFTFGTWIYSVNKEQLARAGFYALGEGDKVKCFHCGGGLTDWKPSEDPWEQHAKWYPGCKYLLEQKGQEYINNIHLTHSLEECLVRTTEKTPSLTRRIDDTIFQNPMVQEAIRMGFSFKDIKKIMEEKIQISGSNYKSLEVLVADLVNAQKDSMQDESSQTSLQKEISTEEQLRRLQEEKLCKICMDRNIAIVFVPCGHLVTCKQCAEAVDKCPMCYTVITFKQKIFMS
T5 sequence (Q9UBE0 whole entry): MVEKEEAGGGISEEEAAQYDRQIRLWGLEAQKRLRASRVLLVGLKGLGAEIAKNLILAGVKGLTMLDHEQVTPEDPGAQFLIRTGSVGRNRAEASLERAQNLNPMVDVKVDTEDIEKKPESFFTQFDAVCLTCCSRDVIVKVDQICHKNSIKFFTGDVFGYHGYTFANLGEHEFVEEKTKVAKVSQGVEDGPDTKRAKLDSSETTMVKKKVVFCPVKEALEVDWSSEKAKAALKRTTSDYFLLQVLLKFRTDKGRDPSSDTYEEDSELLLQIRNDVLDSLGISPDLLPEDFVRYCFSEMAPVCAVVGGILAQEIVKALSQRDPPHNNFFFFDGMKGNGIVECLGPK
T5 sequence (Q9UBT2 whole entry): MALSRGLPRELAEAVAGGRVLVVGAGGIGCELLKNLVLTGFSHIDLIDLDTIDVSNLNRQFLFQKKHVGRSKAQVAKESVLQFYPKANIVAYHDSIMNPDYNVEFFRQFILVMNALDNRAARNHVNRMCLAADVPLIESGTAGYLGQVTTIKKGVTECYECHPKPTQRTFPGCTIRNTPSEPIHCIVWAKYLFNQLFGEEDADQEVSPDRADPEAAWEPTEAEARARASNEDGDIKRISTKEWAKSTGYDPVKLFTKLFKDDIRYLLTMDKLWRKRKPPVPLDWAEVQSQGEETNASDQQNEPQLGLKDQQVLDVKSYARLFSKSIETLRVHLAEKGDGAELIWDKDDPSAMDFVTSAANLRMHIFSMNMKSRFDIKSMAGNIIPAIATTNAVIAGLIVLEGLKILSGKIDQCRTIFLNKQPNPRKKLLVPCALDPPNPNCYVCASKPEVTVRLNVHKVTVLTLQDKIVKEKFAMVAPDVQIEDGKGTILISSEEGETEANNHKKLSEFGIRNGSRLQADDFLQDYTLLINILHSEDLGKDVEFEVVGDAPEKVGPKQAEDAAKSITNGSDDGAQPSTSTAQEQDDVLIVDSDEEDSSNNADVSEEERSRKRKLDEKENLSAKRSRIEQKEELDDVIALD
T3 sequence (P41145 whole entry): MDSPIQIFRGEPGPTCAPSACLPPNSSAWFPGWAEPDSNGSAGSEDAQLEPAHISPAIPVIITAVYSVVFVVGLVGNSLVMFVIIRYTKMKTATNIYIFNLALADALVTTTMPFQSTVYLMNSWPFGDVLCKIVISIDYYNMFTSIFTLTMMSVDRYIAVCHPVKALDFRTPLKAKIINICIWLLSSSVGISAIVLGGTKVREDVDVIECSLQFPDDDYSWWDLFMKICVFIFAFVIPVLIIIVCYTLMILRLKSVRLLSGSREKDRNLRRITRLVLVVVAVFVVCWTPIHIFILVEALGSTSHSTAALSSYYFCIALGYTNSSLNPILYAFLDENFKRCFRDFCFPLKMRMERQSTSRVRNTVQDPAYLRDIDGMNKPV
Sequence of Melanocortin receptor 4 (P32245 whole entry): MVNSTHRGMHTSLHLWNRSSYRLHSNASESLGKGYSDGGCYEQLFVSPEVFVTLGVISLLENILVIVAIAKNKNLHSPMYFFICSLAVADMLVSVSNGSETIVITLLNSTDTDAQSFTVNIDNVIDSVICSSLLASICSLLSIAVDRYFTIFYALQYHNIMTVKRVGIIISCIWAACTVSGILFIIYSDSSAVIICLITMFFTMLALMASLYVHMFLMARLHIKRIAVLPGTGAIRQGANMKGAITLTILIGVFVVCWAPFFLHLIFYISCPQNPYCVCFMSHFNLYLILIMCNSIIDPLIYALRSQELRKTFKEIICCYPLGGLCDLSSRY
Sequence of Peroxisome proliferator-activated receptor gamma/Nuclear receptor coactivator 1 (P37231 whole entry): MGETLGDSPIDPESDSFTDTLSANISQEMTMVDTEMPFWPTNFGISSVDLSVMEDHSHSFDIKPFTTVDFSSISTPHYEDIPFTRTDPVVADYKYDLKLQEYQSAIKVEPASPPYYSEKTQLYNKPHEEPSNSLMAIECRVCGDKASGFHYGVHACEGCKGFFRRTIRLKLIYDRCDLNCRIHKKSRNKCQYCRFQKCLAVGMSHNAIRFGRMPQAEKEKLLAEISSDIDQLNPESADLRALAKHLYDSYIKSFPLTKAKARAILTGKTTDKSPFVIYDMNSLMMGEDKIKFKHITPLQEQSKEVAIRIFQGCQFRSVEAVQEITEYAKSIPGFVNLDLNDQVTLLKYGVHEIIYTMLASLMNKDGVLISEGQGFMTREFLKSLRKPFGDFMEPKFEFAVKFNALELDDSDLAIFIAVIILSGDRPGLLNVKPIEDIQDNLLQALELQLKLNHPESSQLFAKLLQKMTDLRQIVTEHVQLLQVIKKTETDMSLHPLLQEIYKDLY
Sequence of Peroxisome proliferator-activated receptor gamma/Nuclear receptor coactivator 1 (Q15788 whole entry, further chain): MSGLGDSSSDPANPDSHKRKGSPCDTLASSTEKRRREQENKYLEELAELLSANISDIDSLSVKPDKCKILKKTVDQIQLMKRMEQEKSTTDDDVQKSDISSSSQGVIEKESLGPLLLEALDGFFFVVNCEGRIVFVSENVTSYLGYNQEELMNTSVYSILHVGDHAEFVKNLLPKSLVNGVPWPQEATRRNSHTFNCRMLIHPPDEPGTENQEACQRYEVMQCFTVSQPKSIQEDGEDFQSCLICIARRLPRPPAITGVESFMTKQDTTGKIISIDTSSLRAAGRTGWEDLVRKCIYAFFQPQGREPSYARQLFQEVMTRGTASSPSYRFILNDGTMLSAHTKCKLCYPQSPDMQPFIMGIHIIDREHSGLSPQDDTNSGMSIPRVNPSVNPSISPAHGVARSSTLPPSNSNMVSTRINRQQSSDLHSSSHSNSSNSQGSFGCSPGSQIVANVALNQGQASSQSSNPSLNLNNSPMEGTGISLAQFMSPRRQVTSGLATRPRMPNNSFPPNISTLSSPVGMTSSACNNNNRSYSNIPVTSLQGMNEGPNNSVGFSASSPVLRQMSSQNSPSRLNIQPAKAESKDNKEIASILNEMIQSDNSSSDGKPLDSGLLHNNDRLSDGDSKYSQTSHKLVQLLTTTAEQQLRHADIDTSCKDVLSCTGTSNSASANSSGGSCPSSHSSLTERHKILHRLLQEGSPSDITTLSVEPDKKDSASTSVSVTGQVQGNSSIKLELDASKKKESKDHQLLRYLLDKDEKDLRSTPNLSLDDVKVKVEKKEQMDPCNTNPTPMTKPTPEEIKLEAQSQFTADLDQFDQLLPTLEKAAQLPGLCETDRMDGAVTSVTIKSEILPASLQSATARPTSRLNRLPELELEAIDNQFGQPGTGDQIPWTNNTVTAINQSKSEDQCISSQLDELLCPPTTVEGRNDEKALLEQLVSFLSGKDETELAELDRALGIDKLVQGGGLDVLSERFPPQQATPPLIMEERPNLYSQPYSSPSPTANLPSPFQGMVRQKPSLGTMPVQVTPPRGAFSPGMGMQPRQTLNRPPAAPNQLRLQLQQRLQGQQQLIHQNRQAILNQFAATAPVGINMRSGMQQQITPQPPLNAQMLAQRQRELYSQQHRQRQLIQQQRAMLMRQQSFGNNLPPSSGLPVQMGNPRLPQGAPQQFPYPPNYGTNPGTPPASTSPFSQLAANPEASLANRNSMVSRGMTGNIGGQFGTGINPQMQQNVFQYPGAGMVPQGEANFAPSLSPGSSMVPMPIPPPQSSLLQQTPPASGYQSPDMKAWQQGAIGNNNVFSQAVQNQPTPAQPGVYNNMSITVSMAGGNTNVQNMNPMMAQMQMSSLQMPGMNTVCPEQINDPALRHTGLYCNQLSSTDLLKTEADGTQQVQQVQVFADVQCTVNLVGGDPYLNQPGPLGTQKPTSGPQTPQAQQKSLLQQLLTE
Sequence of Induced myeloid leukemia cell differentiation protein Mcl-1 (Q07820 whole entry): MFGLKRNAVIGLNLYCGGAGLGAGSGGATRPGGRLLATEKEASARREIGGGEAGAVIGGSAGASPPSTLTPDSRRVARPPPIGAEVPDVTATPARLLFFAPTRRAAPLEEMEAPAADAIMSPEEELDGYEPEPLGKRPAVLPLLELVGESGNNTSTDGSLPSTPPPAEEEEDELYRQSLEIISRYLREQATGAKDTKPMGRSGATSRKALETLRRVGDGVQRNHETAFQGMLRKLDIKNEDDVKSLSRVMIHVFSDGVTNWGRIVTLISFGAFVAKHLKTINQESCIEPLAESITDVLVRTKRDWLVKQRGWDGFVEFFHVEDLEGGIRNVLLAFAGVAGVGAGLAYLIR
Sequence of Glyceraldehyde-3-phosphate dehydrogenase (P04406 whole entry): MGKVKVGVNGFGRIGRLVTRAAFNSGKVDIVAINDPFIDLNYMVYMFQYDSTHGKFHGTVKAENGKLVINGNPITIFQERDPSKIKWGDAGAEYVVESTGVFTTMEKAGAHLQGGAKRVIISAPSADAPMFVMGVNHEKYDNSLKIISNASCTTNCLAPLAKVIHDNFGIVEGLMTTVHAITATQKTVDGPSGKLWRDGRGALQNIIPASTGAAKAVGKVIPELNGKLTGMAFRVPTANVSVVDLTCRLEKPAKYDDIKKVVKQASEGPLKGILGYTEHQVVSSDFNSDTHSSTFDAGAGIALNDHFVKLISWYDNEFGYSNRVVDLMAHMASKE

SMILES: Cc1c(C(=O)N2CCc3ccccc32)oc2ccccc12
- IC50 [1]: > 100 µM (inactive)
- IC50 [2]: > 100 µM (not active)
- IC50 [3]: > 67.6 µM (inactive)

SMILES: O=C1C2CCCCC2C(=O)N1c1ncn[nH]1 (stereo not drawn)
- IC50 [4]: > 100 µM (not active)
- IC50 [5]: > 100 µM (inactive)

SMILES: CCC(=O)N1c2ccccc2[C@@H](N(C(C)=O)c2ccccc2)C[C@H]1C
- IC50 [6]: > 80 µM (inactive)

SMILES: CCOc1ccccc1C(=O)N1CCN(C(c2ccccc2)c2ccccc2)CC1
- EC50 [7]: 14.3 µM (active)
- IC50 [8]: 15.7 µM (active)
- IC50 [9]: > 20 µM (inactive)
- EC50 [10]: 13 µM (active)
- IC50 [11]: > 20 µM (inactive)
- IC50 [12]: > 20 µM (inactive)

SMILES: O=c1ccc2nccc3c4c(O)cccc4n1c23
- EC50 [13]: 12.7 µM (active)
- EC50 [14]: 9.94 µM (active)
- EC50 [15]: 11.9 µM (active)
- IC50 [6]: > 80 µM (inactive)

SMILES: COc1ccc(C(=O)/C(=C\c2ccco2)N2C=CC=CC2=C(C#N)C#N)cc1
- EC50 [13]: 7.21 µM (inconclusive)
- EC50 [14]: 12.3 µM (active)
- EC50 [15]: 0.141 µM (active)
- IC50 [16]: 5.93 µM (active)
- EC50 [17]: > 31.5 µM (inactive)
- IC50 [18]: 2.01 µM (active)
- IC50 [19]: 18 µM
- IC50 [20]: 9.37 µM (active)
- AC50 [21]: 5.51 µM (active)
- IC50 [22]: > 64.6 µM (inactive)
- IC50 [23]: > 64.6 µM (inactive)

SMILES: COc1ccc(CC2(CO)CCN(Cc3cnn(C)c3)CC2)cc1
- IC50 [1]: > 100 µM (inactive)
- IC50 [2]: > 100 µM (not active)

SMILES: Clc1ccc2c(c1)C(N1CCNCC1)Cc1ccccc1S2 (stereo not drawn)
- EC50 [24]: 21.3 µM (not active)
- EC50 [25]: > 9.97 µM (active)
- CC50 [26]: 12 µM (active)
- CC50 [27]: 8.65 µM (active)
- CC50 [28]: 11.5 µM (active)
- IC50 [29]: 15.5 µM (active)

SMILES: COc1ccc(/C=C2/SC(=S)N(c3ccc(S(=O)(=O)Nc4nccs4)cc3)C2=O)cc1
- IC50 [30]: 1.18 µM (active)
- IC50 [31]: 5.9 µM (active)
- IC50 [32]: 1.98 µM (active)

SMILES: CCN(CC)CCNC(=O)c1ccc(NC(=O)c2cn(-c3ccc(F)cc3)nc2-c2cccc(OC)c2)cc1
- EC50 [33]: 3.25 µM (active)
- EC50 [34]: > 60 µM (not active)
- IC50 [35]: > 20 µM (inactive)
- IC50 [36]: 14.6 µM (active)
- IC50 [37]: 8.8 µM (active)
- AC50 [38]: 11.1 µM (active)
- AC50 [39]: 15.8 µM (active)

SMILES: O=c1c2ccccc2c(-c2nnc(S)o2)nn1Cc1ccccc1
- EC50 [40]: 10.3 µM (inactive)
- EC50 [41]: 63.6 µM (not active)
- EC50 [42]: 11.6 µM (not active)
